Source: ChEMBL document CHEMBL4732026, “Benzimidazole-1,2,3-triazole hybrid molecules: synthesis and study of their interaction with G-quadruplex DNA” (RSC Med Chem, 2021)
Values belong to the compound of their own block, whether it stands above or below them. The source made the active and inactive calls. The calls are words filed in the database; no cut-off is given here.

Experiments:
PC-3 [1] = experiment: Cytotoxicity against human PC3 cells assessed as reduction in cell viability measured after 72 hrs by MTT assay; format: functional, cell-based; conditions: PC-3, 72 h
CHO-K1 [2] = experiment: Cytotoxicity against […] cells assessed as reduction in cell viability measured after 72 hrs by MTT assay; format: cell-based; conditions: Cricetulus griseus, CHO-K1, 72 h
B16-F10 = experiment: Cytotoxicity against mouse B16-F10 cells assessed as reduction in cell viability measured after 72 hrs by MTT assay; format: functional, cell-based; conditions: B16-F10, 72 h
PC-3 [3] = experiment: Induction of apoptosis in human PC-3 cells assessed as apoptotic cells at 98 uM incubated for 48 hrs by AnnexinV based flow cytometric analysis (reference value: 10.43%); format: functional
PC-3 [4] = experiment: Induction of apoptosis in human PC-3 cells assessed as early apoptic cells at 91 uM after 48 hrs by Annexin V based flow cytometric analysis (reference value: 0.40%); format: functional
CHO-K1 [5] = experiment: Induction of apoptosis in CHO-K1 cells assessed as late apoptic cells at 63 uM after 48 hrs by Annexin V based flow cytometric analysis (reference value: 1.01%); format: cell-based, Cricetulus griseus; conditions: chinese hamster, cho-k1, 48 h
PC-3 [6] = experiment: Induction of apoptosis in human PC-3 cells assessed as apoptotic cells at 91 uM incubated for 48 hrs by AnnexinV based flow cytometric analysis (reference value: 10.43%); format: functional
PC-3 [7] = experiment: Induction of apoptosis in human PC-3 cells assessed as viable cells at 98 uM after 48 hrs by Annexin V based flow cytometric analysis (reference value: 89.57%); format: functional; conditions: read-out: Activity
CHO-K1 [8] = experiment: Induction of apoptosis in CHO-K1 cells assessed as early apoptic cells at 63 uM after 48 hrs by Annexin V based flow cytometric analysis (reference value: 4.58%); format: cell-based, Cricetulus griseus; conditions: chinese hamster, cho-k1, 48 h
CHO-K1 [9] = experiment: Induction of apoptosis in CHO-K1 cells assessed as necrotic cells at 63 uM after 48 hrs by Annexin V based flow cytometric analysis (reference value: 0.70%); format: cell-based, Cricetulus griseus; conditions: chinese hamster, cho-k1, 48 h
[10] = Induction of apoptosis in CHO-K1 cells assessed as viable cells at 63 uM after 48 hrs by Annexin V based flow cytometric analysis (reference value: 93.71%); format: cell-based, Cricetulus griseus; conditions: chinese hamster, read-out: Activity
CHO-K1 [11] = experiment: Induction of apoptosis in CHO-K1 cells assessed as early apoptic cells at 60 uM after 48 hrs by Annexin V based flow cytometric analysis (reference value: 4.58%); format: cell-based, Cricetulus griseus; conditions: chinese hamster, cho-k1, 48 h
CHO-K1 [12] = experiment: Induction of apoptosis in CHO-K1 cells assessed as apoptic cells at 60 uM after 48 hrs by Annexin V based flow cytometric analysis (reference value: 6.29%); format: cell-based, Cricetulus griseus; conditions: chinese hamster, cho-k1, 48 h
[13] = Induction of apoptosis in CHO-K1 cells assessed as viable cells at 60 uM after 48 hrs by Annexin V based flow cytometric analysis (reference value: 93.71%); format: cell-based, Cricetulus griseus; conditions: chinese hamster, read-out: Activity
CHO-K1 [14] = experiment: Induction of apoptosis in CHO-K1 cells assessed as necrotic cells at 60 uM after 48 hrs by Annexin V based flow cytometric analysis (reference value: 0.70%); format: cell-based, Cricetulus griseus; conditions: chinese hamster, cho-k1, 48 h
PC-3 [15] = experiment: Induction of apoptosis in human PC-3 cells assessed as early apoptic cells at 98 uM after 48 hrs by Annexin V based flow cytometric analysis (reference value: 0.40%); format: functional
CHO-K1 [16] = experiment: Induction of apoptosis in CHO-K1 cells assessed as apoptic cells at 63 uM after 48 hrs by Annexin V based flow cytometric analysis (reference value: 6.29%); format: cell-based, Cricetulus griseus; conditions: chinese hamster, cho-k1, 48 h
PC-3 [17] = experiment: Induction of apoptosis in human PC-3 cells assessed as late apoptic cells at 98 uM after 48 hrs by Annexin V based flow cytometric analysis (reference value: 9.24%); format: functional
PC-3 [18] = experiment: Induction of apoptosis in human PC-3 cells assessed as late apoptic cells at 91 uM after 48 hrs by Annexin V based flow cytometric analysis (reference value: 9.24%); format: functional
CHO-K1 [19] = experiment: Induction of reactive oxygen species generation in CHO-K1 cells after 48 hrs by DCFH-DA staining based flow cytometeric analysis; format: cell-based, Cricetulus griseus; conditions: chinese hamster, cho-k1, 48 h
PC-3 [20] = experiment: Induction of apoptosis in human PC-3 cells assessed as necrotic cells at 98 uM after 48 hrs by Annexin V based flow cytometric analysis (reference value: 0.79%); format: functional
PC-3 [21] = experiment: Induction of apoptosis in human PC-3 cells assessed as viable cells at 91 uM after 48 hrs by Annexin V based flow cytometric analysis (reference value: 89.57%); format: functional; conditions: read-out: Activity
PC-3 [22] = experiment: Induction of apoptosis in human PC-3 cells assessed as necrotic cells at 91 uM after 48 hrs by Annexin V based flow cytometric analysis (reference value: 0.79%); format: functional
CHO-K1 [23] = experiment: Induction of apoptosis in CHO-K1 cells assessed as late apoptic cells at 60 uM after 48 hrs by Annexin V based flow cytometric analysis (reference value: 1.01%); format: cell-based, Cricetulus griseus; conditions: chinese hamster, cho-k1, 48 h
dsDNA [24] = experiment: Binding affinity to double strand DNA (unknown origin) assessed as hyperchromicity at 10.3 uM incubated for 5 mins by UV- vis spectrophotometric analysis; format: nucleic-acid assay
Quadruplex DNA [25] = experiment: Stabilization of c-Myc G-quadruplex DNA (unknown origin) assessed as change in melting temperature at 10.3 uM incubated for 5 mins by UV-visible thermal denaturation study; format: nucleic-acid assay
Quadruplex DNA [26] = experiment: Binding affinity to Tel Q G-quadruplex DNA (unknown origin) assessed as hypsochromic shift at 10.3 uM incubated for 5 mins by UV- vis spectrophotometric analysis; format: nucleic-acid assay
Quadruplex DNA [27] = experiment: Binding affinity to c-Myc G-quadruplex DNA (unknown origin) assessed as increase in fluorescence intensity at 10.3 uM incubated for 5 mins by spectrofluorometric analysis; format: nucleic-acid assay
dsDNA [28] = experiment: Stabilization of double strand DNA (unknown origin) assessed as change in melting temperature at 10.3 uM incubated for 5 mins by UV-visible thermal denaturation study; format: nucleic-acid assay
dsDNA [29] = experiment: Binding affinity to double strand DNA (unknown origin) assessed as increase in fluorescence intensity at 8.5 uM incubated for 5 mins by spectrofluorometric analysis; format: nucleic-acid assay
Quadruplex DNA [30] = experiment: Binding affinity to Tel Q G-quadruplex DNA (unknown origin) assessed as increase in fluorescence intensity at 10.3 uM incubated for 5 mins by spectrofluorometric analysis; format: nucleic-acid assay
dsDNA [31] = experiment: Binding affinity to double strand DNA (unknown origin) assessed as hypsochromic shift at 10.3 uM incubated for 5 mins by UV- vis spectrophotometric analysis; format: nucleic-acid assay
Quadruplex DNA [32] = experiment: Binding affinity to c-Myc G-quadruplex DNA (unknown origin) assessed as dissociation constant incubated for 5 mins by UV- vis spectrophotometric analysis; format: nucleic-acid assay
Quadruplex DNA [33] = experiment: Binding affinity to Tel Q G-quadruplex DNA (unknown origin) assessed as hyperchromicity at 10.3 uM incubated for 5 mins by UV- vis spectrophotometric analysis; format: nucleic-acid assay
Quadruplex DNA [34] = experiment: Stabilization of Tel Q G-quadruplex DNA (unknown origin) assessed as change in melting temperature at 10.3 uM incubated for 5 mins by UV-visible thermal denaturation study; format: nucleic-acid assay
Quadruplex DNA [35] = experiment: Binding affinity to c-Myc G-quadruplex DNA (unknown origin) assessed as hypsochromic shift at 10.3 uM incubated for 5 mins by UV- vis spectrophotometric analysis; format: nucleic-acid assay
dsDNA [36] = experiment: Binding affinity to double strand DNA (unknown origin) assessed as dissociation constant incubated for 5 mins by UV- vis spectrophotometric analysis; format: nucleic-acid assay
Quadruplex DNA [37] = experiment: Binding affinity to Tel Q G-quadruplex DNA (unknown origin) assessed as dissociation constant incubated for 5 mins by UV- vis spectrophotometric analysis; format: nucleic-acid assay
dsDNA [38] = experiment: Binding affinity to double strand DNA (unknown origin) assessed as increase in fluorescence intensity at 10.3 uM incubated for 5 mins by spectrofluorometric analysis; format: nucleic-acid assay
Quadruplex DNA [39] = experiment: Binding affinity to Tel Q G-quadruplex DNA (unknown origin) assessed as increase in fluorescence intensity at 8.5 uM incubated for 5 mins by spectrofluorometric analysis; format: nucleic-acid assay
Quadruplex DNA [40] = experiment: Binding affinity to c-Myc G-quadruplex DNA (unknown origin) assessed as increase in fluorescence intensity at 8.5 uM incubated for 5 mins by spectrofluorometric analysis; format: nucleic-acid assay
Quadruplex DNA [41] = experiment: Binding affinity to c-Myc G-quadruplex DNA (unknown origin) assessed as hyperchromicity at 10.3 uM incubated for 5 mins by UV- vis spectrophotometric analysis; format: nucleic-acid assay

SMILES: Cc1c(NC(=O)Cn2cc(CSc3nc4cc(OC(F)F)ccc4[nH]3)nn2)cccc1[N+](=O)[O-]
IC50 (PC-3 [1]): 66.2 µM | IC50 (CHO-K1 [2]): 62.2 µM | IC50 (B16-F10): 103 µM

SMILES: Fc1ccc(-n2cc(CSc3nc4cc(OC(F)F)ccc4[nH]3)nn2)cc1F
IC50 (PC-3 [1]): 65.2 µM | IC50 (CHO-K1 [2]): 56.1 µM | IC50 (B16-F10): 56.8 µM

SMILES: C[n+]1ccc(-c2c3nc(c(-c4cc[n+](C)cc4)c4ccc([nH]4)c(-c4cc[n+](C)cc4)c4ccc([nH]4)c(-c4cc[n+](C)cc4)c4nc2C=C4)C=C3)cc1 [TMPYP4]
Activity (PC-3 [3]): 48.7% | Activity (PC-3 [4]): 4.41% | Activity (CHO-K1 [5]): 4.66% | Activity (PC-3 [6]): 24.8% | IC50 (PC-3 [1]): 94.8 µM | viability at 98 µM (PC-3 [7]): 51.3% | Activity (CHO-K1 [8]): 18.87% | Activity (CHO-K1 [9]): 1.31% | viability at 48 h, 63 µM [10]: 75.2% | Activity (CHO-K1 [11]): 13.72% | Activity (CHO-K1 [12]): 18.06% | IC50 (CHO-K1 [2]): 61.4 µM | viability at 48 h, 60 µM [13]: 81.9% | Activity (CHO-K1 [14]): 0.95% | Activity (PC-3 [15]): 0.9% | Activity (CHO-K1 [16]): 24.84% | IC50 (B16-F10): 77 µM | Activity (PC-3 [17]): 33.44% | Activity (PC-3 [18]): 18.01% | Activity (CHO-K1 [19]): Non-Toxic | Activity (PC-3 [20]): 14.36% | viability at 91 µM (PC-3 [21]): 75.2% | Activity (PC-3 [22]): 2.38% | Activity (CHO-K1 [23]): 3.39%

Activity (dsDNA [24]): 15.9% | ΔTm (Quadruplex DNA [25]): -5 °C | Activity (Quadruplex DNA [26]): 2.9 nm | Activity (Quadruplex DNA [27]): Active | ΔTm (dsDNA [28]): 0 °C | Activity (dsDNA [29]): Active | Activity (Quadruplex DNA [30]): Active | Activity (dsDNA [31]): 1.6 nm | Kd (Quadruplex DNA [32]): 79.2 µM | Activity (Quadruplex DNA [33]): 31.4% | ΔTm (Quadruplex DNA [34]): 9 °C | Activity (Quadruplex DNA [35]): 0.6 nm | Kd (dsDNA [36]): 191 µM | Kd (Quadruplex DNA [37]): 87.3 µM | Activity (dsDNA [38]): Active | Activity (Quadruplex DNA [39]): Active | Activity (Quadruplex DNA [40]): Active | Activity (Quadruplex DNA [41]): 11.7%
SMILES: O=[N+]([O-])c1ccc(-n2cc(CSc3nc4cc(OC(F)F)ccc4[nH]3)nn2)cc1
IC50 (PC-3 [1]): 59.2 µM | IC50 (CHO-K1 [2]): 100 µM | IC50 (B16-F10): 203 µM

SMILES: O=C(Cn1cc(CSc2nc3cc(OC(F)F)ccc3[nH]2)nn1)Nc1cccc(Cl)c1
IC50 (PC-3 [1]): 136 µM | IC50 (CHO-K1 [2]): 115 µM | IC50 (B16-F10): 135 µM

SMILES: FC(F)Oc1ccc2[nH]c(SCc3cn(-c4cccc(Cl)c4Cl)nn3)nc2c1
IC50 (PC-3 [1]): 69.8 µM | IC50 (CHO-K1 [2]): 85 µM | IC50 (B16-F10): 90.5 µM
